Test results taken from US6593325B1, “Pyrido-pyridazine derivatives as ligands for GABA receptors” (Merck Sharp & Dohme Ltd., priority 1999, dated 2003).

melting point: 222 to 223 °C
SMILES: Cn1ncnc1COc1nc2c(-c3ccccc3)nncc2cc1-c1ccccc1 [Example 1, 3,8-Diphenyl-2-(2-methyl-2H-[1,2,4]triazol-3-ylmethoxy)pyrido[2,3-d]pyridazine]
